Source: patent publication US9023865B2, “Compounds that are ERK inhibitors” (Merck Sharp & Dohme Corp., priority 2011, dated 2015)

molecular target: Active Human ERK2 (hERK2) (Homo sapiens (Human), UniProt P28482); assay: Active Human ERK2 (hERK2) Activity Assay (IMAP-FP); type: biochemical; details: phosphorylated active hERK2, 30 μM ATP; average; read-out: ERK 2 Human average IC50
Method in brief: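 Reaction contains 0.5 nM activated hERK2, 900 nM unlabeled plus 80 nM labeled peptide and 30 μM ATP, run 60 min. Quenched with IMAP binding beads in buffer with 24 mM NaCl; fluorescence polarization read after 60 min binding equilibration.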

Chain of Active Human ERK2 (hERK2) (P28482 whole entry): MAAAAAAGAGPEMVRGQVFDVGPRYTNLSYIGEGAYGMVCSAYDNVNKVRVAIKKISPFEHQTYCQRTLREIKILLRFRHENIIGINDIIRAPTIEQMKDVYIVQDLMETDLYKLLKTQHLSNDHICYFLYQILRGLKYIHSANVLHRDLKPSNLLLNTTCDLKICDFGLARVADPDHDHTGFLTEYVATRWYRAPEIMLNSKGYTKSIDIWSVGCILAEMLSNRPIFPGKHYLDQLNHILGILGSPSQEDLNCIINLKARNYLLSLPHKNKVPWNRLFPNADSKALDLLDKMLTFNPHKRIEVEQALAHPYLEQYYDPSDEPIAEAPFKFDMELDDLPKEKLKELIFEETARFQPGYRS

SMILES	IC50
Cc1cc(-c2n[nH]c3cc(NC(=O)Nc4noc5cnccc45)ncc23)ccn1 [Example 360]	0.378 nM
CCCNC(=O)Nc1cc2[nH]nc(-c3ccnc(C)c3)c2cn1 [Example 572]	1.62 nM
CO[C@H]1CN(C(=O)c2n[nH]c3cc(NC(=O)N[C@H](C)c4ccccc4)ncc23)C[C@@H]1O [Example 130]	1970 nM
CC(=O)OC1CCCC(NC(=O)Nc2cc3[nH]nc(-c4ccnc(C)c4)c3cn2)C1 (stereo not drawn) [Example 381]	6.71 nM
Cc1cc(-c2n[nH]c3cc(NC(=O)N[C@H]4CN(C)[C@@H](C(F)F)[C@@H]4c4ccccc4)ncc23)ccn1 [Example 567]	0.441 nM
Cc1cc(-c2n[nH]c3cc(NC(=O)N4CCN(c5ccc(F)cc5)C[C@H]4C)ncc23)ccn1 [Example 288]	2290 nM
C[C@@H](NC(=O)Nc1cc2[nH]nc(C(F)F)c2cn1)c1ccccn1 [Example 678]	765 nM
Cc1cc(-c2n[nH]c3cc(NC(=O)NCc4cccc5ccccc45)ncc23)ccn1 [Example 32, 1-[3-(2-methylpyridin-4-yl)-1H-pyrazolo[4,3-c]pyridin-6-yl]-3-(naphthalen-1-ylmethyl)urea]	3.92 nM
CO[C@H](C)CNC(=O)Nc1cc2[nH]nc(-c3ccnc(C)c3)c2cn1 [Example 598]	1.55 nM
CCN(CC)CCC(NC(=O)Nc1cc2[nH]nc(-c3ccnc(C)c3)c2cn1)c1ccccc1 (stereo not drawn) [Example 406]	1.06 nM
Cc1cc(-c2n[nH]c3cc(NC(=O)NCc4ccc[n+]([O-])c4)ncc23)ccn1 [Example 508]	11.6 nM
O=C(NCc1ccc(F)cc1)Nc1cc2[nH]nc(-c3ccc(OC(F)(F)F)cc3)c2cn1 [Example 675]	89.2 nM
Cc1cc(-c2n[nH]c3cc(NC(=O)N[C@H](C)c4ccc(C(F)(F)F)nc4)ncc23)ccn1 [Example 527]	567 nM
Cc1cc(-c2n[nH]c3cc(NC(=O)NCc4ccc(C(F)(F)F)cc4)ncc23)ccn1 [Example 54, 1-[3-(2-methylpyridin-4-yl)-1H-pyrazolo[4,3-c]pyridin-6-yl]-3-[4-(trifluoromethyl)-benzyl]urea]	6.52 nM
Cc1cc(-c2n[nH]c3cc(NC(=O)NCc4ccc(F)c(Cl)c4)ncc23)ccn1 [Example 56, 1-(3-chloro-4-fluorobenzyl)-3-[3-(2-methylpyridin-4-yl)-1H-pyrazolo[4,3-c]pyridin-6-yl]urea]	0.411 nM
Cc1cc(-c2n[nH]c3cc(NC(=O)NCc4cnccc4C)ncc23)ccn1 [Example 491]	1.41 nM
CCC(NC(=O)Nc1cc2[nH]nc(-c3ccnc(C)c3)c2cn1)c1ccccn1 (stereo not drawn) [Example 347]	1.34 nM
COC(=O)C1CC1c1n[nH]c2cc(NC(=O)N[C@H](C)c3ccccc3)ncc12 (stereo partly drawn) [Example 644]	1.07 nM
Cc1cc(-c2n[nH]c3cc(NC(=O)NCc4cccc(NS(C)(=O)=O)c4)ncc23)ccn1 [Example 366]	0.34 nM
C[C@@H](NC(=O)Nc1cc2[nH]nc(C(=O)NCC3CCCC(O)C3)c2cn1)c1ccccc1 (stereo partly drawn) [Example 132]	3.2 nM
COc1cccc(F)c1CN1CCC[C@@H](NC(=O)Nc2cc3[nH]nc(-c4ccc(F)cc4)c3cn2)C1 [Example 654]	2.2 nM
Cc1cc(-c2n[nH]c3cc(NC(=O)NCC4(Nc5ccccc5)CCOCC4)ncc23)ccn1 [Example 398]	1.13 nM
COC[C@@H](NC(=O)Nc1ncc2c(-c3ccncc3)n[nH]c2c1F)c1ccccc1 [Example 547]	0.184 nM
Cc1cc(-c2n[nH]c3cc(NC(=O)NC4CCc5ccncc5C4)ncc23)ccn1 (stereo not drawn) [Example 400]	5.42 nM
Cc1cc(-c2n[nH]c3cc(NC(=O)NCc4ncccc4Cl)ncc23)ccn1 [Example 448]	0.827 nM
C[C@@H](NC(=O)Nc1cc2[nH]nc(-c3ccn(C)n3)c2cn1)c1ccccc1 [Example 90, 1-[3-(1-methyl-1H-pyrazol-3-yl)-1H-pyrazolo[4,3-c]pyridin-6-yl]-3-[(1R)-1-phenylethyl]urea]	2.19 nM

same assay, conditions: read-out: AERK2 IC50 (Active human ERK2 Activity Assay)

SMILES	IC50
Cc1cc(-c2n[nH]c3cc(NC(=O)NCc4ccc(F)c(Cl)c4)ncc23)ccn1 [Example 56, 1-(3-chloro-4-fluorobenzyl)-3-[3-(2-methylpyridin-4-yl)-1H-pyrazolo[4,3-c]pyridin-6-yl]urea]	0.2 to 1.7 nM
